These results are taken from patent US20140123342A1, “Regulation of Stomatal Apertures by Apyrases and Extracellular Nucleotides” (BOARD OF REGENTS, THE UNIVERSITY OF TEXAS SYSTEM, priority 2011, published 2014).

Molecules are shown by their SMILES.

Type in all cases: cell-based, Arabidopsis thaliana
For test [1], the system named is stomata (guard cells) in epidermal peels. As to the kind of experiment: Stomatal aperture closure studies, epidermal peels in the light. How it is done:
(§1) Stomatal Aperture Studies: Arabidopsis thaliana ecotypes Columbia (Col-0) and Wassilewskija (WS) were used as wild types in this study. Col-0, nia1nia2, atrbohD/F, R2-4A and WS plants were all grown on autoclaved Metro-Mix 200 soil at 22° C. under continuous light. The mutant seeds nia1nia2 nia2-5; CS 2356; Col-0 background) were obtained from Dr. N. M. Crawford (University of California at San Diego) and the mutant seeds atrbohD/F (Col-0 background) were obtained from Dr. J. M. Kwak (University of Maryland). The RNAi mutant apyrase line (R2-4A) is in WS background, so WS ecotype was used as the control wild type for these studies. Leaves from 2 to 3 week old Col-0 plants, or R2-4A and WS plants treated with 4 μM estradiol for 1 week after development of mature basal leaves were used for peel and whole leaf studies. Plants were placed in the dark and watered 24 h before an study. For opening studies, plants were used immediately after 24 h dark treatment and all treatments were done in the dark except for the light treated leaves or peels, thus the control stomata are dark controls. For closure studies, plants were placed in the light 3 h before an study to induce stomatal opening and all treatments were done in the light, thus the control stomata are light controls. For peel studies, epidermal peels were made from the underside of the leaf and treatments were applied to the peels for 1 h. For whole leaf studies, leaves were removed and treatments were applied for 2 h. For each treatment, about 3 or 4 peels collected from different leaves or 3 or 4 different leaves of at least two different plants were floated with the abaxial side up in petri dishes on 3 mL of Arabidopsis leaf buffer consisting of 10 mM KCl, 25 mM MES pH 6.15 (Melotto et al., 2006) and the chemical being tested. For whole leaf studies peels were collected after the treatment.
(§2) For studies testing the effects of ATPγS, ADPγS, AMPS, RB2, and PPADS (Sigma, St. Louis, Mo., USA) 20 mM stocks were made by dissolving the compounds in de-ionized water. For studies testing the effects of apyrase inhibitors, 7.5 mg/mL of NGXT191 and of inhibitor #13 (Windsor et al., 2002) was dissolved in dimethyl sulfoxide (DMSO) and then applied at a dilution of […] for a final concentration of 0.1% DMSO. ABA (Sigma, St. Louis, Mo., USA) was dissolved in ethanol in 10 mM stocks and then applied at a dilution of 1:1000. The stocks were stored at −20° C. while not in use. The production of the anti-AtAPY1 antibodies used is described by Steinebrunner et al. (2003). The crude immune and pre-immune sera were purified using protein A-Sepharose following the protocol described by Martin (1982) with the slight modification that the buffers used were azide-free. The protein-A purified sera were both used at a 1:1000 dilution in leaf stomatal aperture studies. The concentration of the immune and pre-immune sera, determined by Bradford assay (Bio-Rad), was 10.2 μg/mL and 7.7 μg/mL, respectively.
(§3) After treatment, photos of stomata were taken using a light microscope at 20×. Stomatal aperture width was measured using the image processing software ImageJ. Typically, photos were taken of 70 to 90 stomata per treatment of which only 50 stomata were measured for each treatment. For each treatment the ratio of closed stomata (width of 0) to open stomata was determined for all stomata imaged and this ratio was maintained in the 50 stomata that were measured for each treatment. Data shown uses apertures determined as width/length, however data in all studies also obtained as width only and generally width/length and width only data are in agreement with each other. Statistical significance of the measurements for the treatments was determined using the Student's t test in Microsoft Excel.

For test [2] the test system is unchanged. As to the kind of experiment: Stomatal aperture opening studies, epidermal peels in the dark. How it is done:
as §1, §2, §3

In test [3] the test system is stomata (guard cells) in whole leaves. In words: Stomatal aperture closure studies, whole leaves in the light. Conditions: for effect on ABA-induced stomatal closure / effect on ATPγS-induced stomatal closure: co-incubation. As to the method: as §1, §2, §3
For test [4] the test system is unchanged. In words: Stomatal aperture opening studies, whole leaves in the dark. As to the method: as §1
as §2, with “The crude immune and pre-immune sera were purified using protein A-Sepharose following the protocol described by Martin (1982) with the slight modification that the buffers used were azide-free. The protein-A purified sera were both used at a 1:1000 dilution in leaf stomatal aperture studies.” left out
as §3

Setting [5] is: co-incubation, epidermal peel studies (data not shown).
Where [6] appears, read: 30 μM, whole leaf studies (not shown).
Setting [7] is: co-incubation, 30 μM, leaves (data not shown).

For the compound `Nc1ncnc2c1ncn2[C@@H]1O[C@H](COP(O)(O)=S)[C@@H](O)[C@H]1O` [AMPS], the “effect on stomatal aperture” value in test [1] (200 μM, dose-response tests, summary statement) was “neither 15 μM nor 200 μM AMPS has any effect”; in test [1] (250 μM, epidermal peels, light, 1 h) it was “no effect on stomatal aperture”; in test [2] (15 μM, darkness, 1 h) it was “no effect on stomatal aperture”.
As to `Cc1cccc(NS(=O)(=O)c2ccc(-c3ccccc3)cc2)c1` [NGXT 191, N-(3-methylphenyl)-4-biphenylsulfonamide], the “effect on stomatal aperture” value in test [1] (7.5 μg/mL, epidermal peels, light, 1 h) is given as “induced stomatal closure”.
For the compound `Cc1nc(N=Nc2ccc(S(=O)(=O)O)cc2S(=O)(=O)O)c(COP(=O)(O)O)c(C=O)c1O` [PPADS, pyridoxalphosphate-6-azo-phenyl-2′,4′-disulphonic acid], the “effect on stomatal aperture” value was “no effect by itself” in test [1] (100 μM alone, epidermal peels, light); “no effect alone” in test [3] (100 μM alone, leaves, light); “no effect alone” in test [2] (100 μM alone, opening studies). The “effect on NGXT 191-induced stomatal closure” value in test [1] (co-incubation, 100 μM, with 7.5 μg/mL NGXT 191, epidermal peels) is “blocked”. Further, the “effect on ABA-induced stomatal closure” value is “partially block” in test [1] (setting [5]) and “partially blocked” in test [3] (100 μM, with 10 μM ABA, leaves). Moreover, the “effect on ATPγS-induced stomatal closure” value in test [1] (setting [5]) is recorded as “block”; in test [3] (100 μM, with 200 μM ATPγS, leaves) it was “blocked”. In test [2] (co-incubation, 100 μM), the “effect on light-induced stomatal opening” value was “partially blocked”. The “effect on ATPγS-induced stomatal opening” value in test [2] (co-incubation, 100 μM, with 15 μM ATPγS) is “blocked”. Also, the “effects in opening studies compared with epidermal peels” value in test [4] (whole leaves (data not shown), alone, on ATPγS-induced and on light-induced opening) is given as “the same effects”.
`Nc1c(S(=O)(=O)O)cc(Nc2ccc(Nc3nc(Cl)nc(Nc4cccc(S(=O)(=O)O)c4)n3)c(S(=O)(=O)O)c2)c2c1C(=O)c1ccccc1C2=O` [RB2, reactive blue 2]: in test [3] (30 μM alone, closure studies, leaves), the “effect on stomatal aperture” value is given as “no effect alone”. Besides, in test [3] (setting [6]), the “effect on ABA-induced stomatal closure” value is recorded as “partially block” and the “effect on ATPγS-induced stomatal closure” value is given as “block”. Moreover, the “effect on stomatal aperture” value in test [4] (30 μM alone, opening studies, leaves) is recorded as “no effect by itself”. Besides, in test [4] (setting [7]), the “effect on ATPγS-induced stomatal opening” value is recorded as “block” and the “effect on light-induced stomatal opening” value is on record as “partially block”.
Consider `O=C(Nc1cccc([N+](=O)[O-])c1)c1cccc(S(=O)(=O)Nc2ccc(Br)cc2)c1` [apyrase inhibitor #13, 3-{[(4-bromophenyl)amino]sulfonyl}-N-(3-nitrophenyl)benzamide], for which the “effect on stomatal aperture” value in test [3] (7.5 μg/mL, whole leaves (data not shown)) is “caused stomatal closure”.
